molecular target: lactoperoxidase (LPO) (Bos taurus, UniProt P80025); assay: LPO inhibition, peroxidase selectivity profiling; format: biochemical

Row | IC50 [nM] | SMILES
1 | 2250 | COc1ccc(-c2nc3cc(C)ccn3c2Nc2ccc3c(c2)OCO3)cc1 [NE-2-7]
2 | 890 | Cc1ccc2nc(-c3cccnc3)c(Nc3ccc4c(c3)OCO4)n2c1 [NE-2-6]
3 | 1050 | Cc1ccn2c(Nc3ccc4c(c3)OCO4)c(-c3ccc(O)cc3)nc2c1 [NE-2-8]

— paper PMC13509954 (Antioxidants, 2026)
